Assay results published in BindingDB's records for doi:10.7270/Q27P8WT7 (Srmlsc, 2008).

Settings: inactive by the depositor's call

Compound | EC50
Cc1ccc(OCc2nnc(-c3ccccn3)[nH]2)cc1 | 78.8 µM
COc1ccc(C2=NOC(CN3C(=O)c4ccccc4S3(=O)=O)C2)cc1 (stereo not drawn) | 55 µM
Nc1ccccc1C(=O)/C=C/c1ccc2c(c1)OCO2 | 55.6 µM
COc1ccc2c3c(cccc13)C(=O)N(O)C2=O | 41.6 µM
Fc1ccc(NC(=S)Nc2nccs2)cc1 [1-(4-fluorophenyl)-3-(1,3-thiazol-2-yl)thiourea] | 35.6 µM
Brc1ccccc1OCCCn1cnc2ccccc21 [1-[3-(2-bromanylphenoxy)propyl]benzimidazole] | 62.3 µM
CCCCNC(=S)Nc1ccc(-c2nc3ccc(C)cc3s2)cc1 [1-butyl-3-[4-(6-methyl-1,3-benzothiazol-2-yl)phenyl]thiourea] | 39.6 µM
O=C(Nc1ccccc1)c1ccc2c(c1)OCCO2 [2,3-Dihydro-benzo[1,4]dioxine-6-carboxylic acid phenylamide] | 41.7 µM
O=C1CCCc2nc(N3CCc4ccccc43)ncc21 [2-(2,3-dihydroindol-1-yl)-7,8-dihydro-6H-quinazolin-5-one] | 84.7 µM
NC(=NOC(=O)COc1ccccc1Cl)c1ccccn1 [2-(2-chlorophenoxy)acetic acid [(Z)-[amino(2-pyridinyl)methylidene]amino] ester] | 39.1 µM
NC(=O)Cc1ccc2sc(-c3ccccc3)nc2c1 [2-(2-phenyl-1,3-benzothiazol-5-yl)acetamide] | 36.5 µM
Cc1ccc2sc(NC(=O)CSc3nc(C)cc(C)c3C#N)nc2c1 [2-(3-Cyano-4,6-dimethyl-pyridin-2-ylsulfanyl)-N-(5-methyl-benzothiazol-2-yl)-acetamide] | 31.8 µM
Cc1ccn2c(c1)nc(=S)n2C(=O)c1ccco1 [2-furanyl-(7-methyl-2-sulfanylidene-[1,2,4]triazolo[1,5-a]pyridin-3-yl)methanone] | 56.4 µM
Cc1ccnc(NC(=O)c2cc3ccccc3oc2=O)c1 [2-keto-N-(4-methyl-2-pyridyl)chromene-3-carboxamide] | 47.2 µM
O=c1oc(-c2ccccc2)nc2sc3c(c12)CCCC3 [2-phenyl-5,6,7,8-tetrahydro-4H-[1]benzothieno[2,3-d][1,3]oxazin-4-one] | 69.5 µM
COc1nc(-c2ccccc2)nnc1-c1ccccc1 [3,6-diphenyl-1,2,4-triazin-5-yl methyl ether] | 38.9 µM
COc1ccc(C2=Nc3ccccc3OC2)cc1 [3-(4-methoxyphenyl)-2H-1,4-benzoxazine] | 45.6 µM
c1ccc(CSc2ccc(-c3ccccn3)nn2)cc1 [3-(benzylthio)-6-(2-pyridyl)pyridazine] | 45.1 µM
CCOc1ccc(C(=O)Nc2cccc(C(=O)O)c2)cc1Cl [3-[(3-chloranyl-4-ethoxy-phenyl)carbonylamino]benzoic acid] | 47.8 µM

Compound | EC50
CCn1cnc2sc(-c3ccccc3)cc2c1=O [3-ethyl-6-phenyl-4-thieno[2,3-d]pyrimidinone] | 35.2 µM
O=C(Nc1ccc2c(c1)CCC2)c1cccc(F)c1 [3-fluoro-N-indan-5-yl-benzamide] | 50.2 µM
Nc1nc(-c2ccc3ccccc3c2)cs1 [4-(2-naphthalenyl)-2-thiazolamine] | 35.5 µM
Nc1c(-c2ccccc2)cnn1-c1ccc(C(=O)O)cc1 [4-(5-amino-4-phenyl-1-pyrazolyl)benzoic acid] | 46.2 µM
CCCCSc1ncc(C(=O)OCC)c(N)n1 [4-Amino-2-butylsulfanyl-pyrimidine-5-carboxylic acid ethyl ester] | 46.2 µM
COc1ccc(-c2cn3cc(C(F)(F)F)cc(Cl)c3n2)cc1 [4-[8-chloro-6-(trifluoromethyl)imidazo[1,2-a]pyridin-2-yl]phenyl methyl ether] | 64.2 µM
CCOC(=O)c1nn(-c2ccc(C)cc2)cc1C(=O)c1ccccc1 [4-benzoyl-1-(4-methylphenyl)-3-pyrazolecarboxylic acid ethyl ester] | 36.7 µM
COc1ccc(C(=O)Oc2c(CN3CCOCC3)cc(Cl)c3cccnc23)cc1 [4-methoxybenzoic acid [5-chloro-7-(4-morpholinylmethyl)-8-quinolinyl] ester] | 46.5 µM
Oc1ccc(CN2CCCCC2)c2cccnc12 [5-(1-piperidinylmethyl)-8-quinolinol] | 53.8 µM
Cc1cccc(-c2cc(N)n(-c3ccccc3)n2)c1 [5-(3-methylphenyl)-2-phenyl-3-pyrazolamine] | 80.1 µM
Cn1nnc(-c2ccc(OCc3ccccc3F)cc2)n1 [5-[4-(2-fluorobenzyl)oxyphenyl]-2-methyl-tetrazole] | 69.3 µM
COc1ccc2c(c1OC)C(=O)N(c1cccc(C(F)(F)F)c1)C2 [6,7-dimethoxy-2-[3-(trifluoromethyl)phenyl]-3H-isoindol-1-one] | 69.9 µM
CCCNC(=O)c1noc2c1CCc1cc(OC)ccc1-2 [7-methoxy-N-propyl-4,5-dihydrobenz[g]indoxazene-3-carboxamide] | 39.9 µM
COc1ccc(OC(=O)c2cnn(-c3ccccc3)c2C)cc1 [(4-methoxyphenyl) 5-methyl-1-phenyl-pyrazole-4-carboxylate] | 49.5 µM
Cc1ccc(NC(=O)c2noc3c2CCCCC3)cc1 [MLS000087401] | 33.6 µM
CN(C)/C=N/c1ccc2nn(-c3ccccc3)nc2c1 [MLS000105162] | 42.9 µM
S=C(c1ccc(-c2cccc(Cl)c2)o1)N1CCOCC1 [MLS000107692] | 89.6 µM
Cc1cccc(NC(=O)c2ccc3ccccc3n2)c1C [MLS000569762] | 84.4 µM
CC(C)=CC(=O)Nc1ccc(Br)cc1 [N-(4-bromophenyl)-3-methylbut-2-enamide] | 46.4 µM
